The values below come from US10059669B2, “2-amino-3,5-difluoro-3,6-dimethyl-6-phenyl-3,4,5,6-tetrahydropyridines as BACE1 inhibitors for treating alzheimer's disease” (H. Lundbeck A/S, priority 2014, dated 2018).

The structures appear in SMILES notation.

The test system of one data set is P-gp (MDR1). Briefly: MDCK-MDR1 assay (permeability, efflux ratio). In kind it is in vitro ADME. The settings on record: dog, Papp BA/Papp AB, 60-minute incubation, Pgp substrate when ≥2. The method, then:
The permeability of the test compounds was assessed in MDCK-MDR1 cells that were cultured to confluency (4-6 days) in a 96 transwell plate. Test compounds were diluted with the transport buffer (HBSS+1% BSA) to a concentration of 0.5 μM and applied to the apical or basolateral side of the cell monolayer. Permeation of the test compounds from A to B direction or B to A direction was determined in triplicate over a 60-minute incubation time at 37° C. and 5% CO2 with a relative humidity of 95%. Test compounds were quantified by LC-MS/MS analysis based on the peaks area ratios of analyte/IS in both the receiver and donor wells of the transwell plate.
The apparent permeability coefficient Papp (cm/s) was calculated using the equation: Papp=(dCr/dt)×Vr/(A×C0)
Where dCr/dt is the cumulative concentration of compound in the receiver chamber as a function of time (M/s); Vr is the solution volume in the receiver chamber (0.05 mL on the apical side; 0.25 mL on the basolateral side); A is the surface area for the transport, i.e. 0.0804 cm^2 for the area of the monolayer; C0 is the initial concentration in the donor chamber (VIM).
Compounds are classified Pgp substrates when efflux ratio (Papp BA/Papp AB) is ≥2.

The target in data set [1] is T1, BACE1 (Homo sapiens (Human), UniProt P56817). Briefly: BACE1 binding assay (SPA-based radioligand binding). The settings on record: pH 4.5, 10 nM radioligand, Ki calculated from IC50. The method, then: The binding assay was performed as SPA-based assay using a biotinylated form of human BACE1 recombinantly expressed and subsequently purified from Freestyle HEK293 cells. The binding assay was run in a 50 mM sodium acetate buffer, pH 4.5 containing 50 mM NaCl and 0.03% Tween-20 in white clear bottom 384 plates (Corning #3653). 10 nM (final concentration) radioligand ([^3H]—N-((1S,2R)-1-benzyl-3-cyclopropylamino-2-hydroxy-propyl)-5-(methanesulfonyl-methyl-amino)-N—((R)-1-phenyl-ethyl)-isophthalamide) (TRQ11569 purchased from GE Healthcare) was mixed with test compound at a given concentration, 6 nM (final concentration) human BACE1 and 25 μg Streptavidin coated PVT core SPA beads (RPNQ0007, GE Healthcare Life Sciences) in a total volume of 40 μl. Several concentrations of each test compound were tested in the assay for IC50 determination. The plates were incubated for one hour at room temperature and counted in a Wallac Trilux counter. Total and non-specific binding were determined using buffer and 1 μM (final concentration) of the high affinity BACE1 reference inhibitor (S)-6-[3-chloro-5-(5-prop-1-ynyl-pyridin-3-yl)-thiophen-2-yl]-2-imino-3,6-dimethyl-tetrahydro-pyrimidin-4-one, respectively. For each test compound, a IC50 value (the concentration mediating 50% inhibition of the specific binding of the radioligand) was determined from concentration-response curve and used to calculate the Ki from the equation Ki=IC50/(1+L/Kd), where L and Kd are the final concentration of the radioligand used in the assay and the dissociation constant of the radioligand, respectively. The Kd of the radioligand was determined from saturation binding experiments.
T1 sequence (P56817 46-501): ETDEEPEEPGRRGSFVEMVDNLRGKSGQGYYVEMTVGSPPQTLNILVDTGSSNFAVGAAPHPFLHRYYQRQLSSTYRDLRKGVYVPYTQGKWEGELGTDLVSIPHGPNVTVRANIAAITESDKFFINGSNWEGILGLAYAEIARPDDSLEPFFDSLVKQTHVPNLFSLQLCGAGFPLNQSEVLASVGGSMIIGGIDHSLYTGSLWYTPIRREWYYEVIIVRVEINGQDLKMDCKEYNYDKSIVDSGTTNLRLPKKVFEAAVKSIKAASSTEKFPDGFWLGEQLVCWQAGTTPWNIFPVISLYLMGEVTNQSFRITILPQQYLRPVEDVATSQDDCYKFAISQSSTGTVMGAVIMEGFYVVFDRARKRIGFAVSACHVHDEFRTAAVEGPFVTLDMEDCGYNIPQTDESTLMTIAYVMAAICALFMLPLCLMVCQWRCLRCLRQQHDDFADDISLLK

Data set [2] deals with T1, BACE1. Briefly: BACE1 efficacy assay (FRET-based, commercial BACE1 kit). In kind it is biochemical. The settings on record: 10 μM test compound. The method, then: The efficacy assay was performed as a FRET-based assay using a commercially available BACE1 kit (Life Technologies, P2985). 2 μl test compound at 10 μM (final concentration) and 15 μl BACE1 enzyme from the kit (final concentration 3 nM) were preincubated for 15 minutes at room temperature before addition of 15 μl of substrate from the kit (250 nM final concentration) and incubated for additional 90 minutes at room temperature. The assay plate was subsequently read in a Pherastar (Ex540/Em590). The enzyme activity observed in presence of test compound were normalized to the enzyme activity observed in presence of buffer and 10 μM (final concentration) of the high affinity BACE1 reference inhibitor (S)-6-[3-Chloro-5-(5-prop-1-ynyl-pyridin-3-yl)-thiophen-2-yl]-2-imino-3,6-dimethyl-tetra-hydropyrimidin-4-one, respectively. The efficacy of the test compounds was evaluated at 10 μM (final concentration) and defined as the percent inhibition of the enzyme activity using the equation % inhibition=100%−normalized enzyme activity in percent.

In general, efflux ratio refers to the permeability from basolateral to apical divided by that in the opposite direction, in the common usage. A word on the Ki: it is the dissociation constant of the complex between target and ligand, obtained from inhibition or displacement. By inhibition is commonly meant the relative decrease from the control value, in per cent. On to `C[C@@]1(F)C[C@H](F)[C@@](C)(c2cc(NC(=O)c3ccc(Cl)cc3)ccc2F)N=C1N` [Compound 16, N-(3-((2R,3S,5R)-6-amino-3,5-difluoro-2,5-dimethyl-2,3,4,5-tetrahydropyridin-2-yl)-4-fluorophenyl)-4-chlorobenzamide], for which the efflux ratio at 60 min, 0.5 μM in the data set on P-gp (MDR1) came to 1.6. Moreover, the Ki at BACE1 [1] was 220 nM. The inhibition at 10 µM at BACE1 [2] turned out to be 103%.

As to `C[C@@]1(F)C[C@H](F)[C@@](C)(c2cc(NC(=O)c3cnc(C(F)F)cn3)ccc2F)N=C1N` [Compound 15, N-(3-((2R,3S,5R)-6-amino-3,5-difluoro-2,5-dimethyl-2,3,4,5-tetrahydropyridin-2-yl)-4-fluorophenyl)-5-(difluoromethyl)pyrazine-2-carboxamide], the efflux ratio at 60 min, 0.5 μM in the data set with P-gp (MDR1) came out at 2.07. The Ki on BACE1 [1] was 100 nM. The inhibition at 10 µM on BACE1 [2] amounted to 108%.

As for `C[C@]1(F)C[C@H](F)[C@@](C)(c2cc(NC(=O)c3ccc(F)cn3)ccc2F)N=C1N` [Compound 1, N-(3-((2R,3S,5S)-6-Amino-3,5-difluoro-2,5-dimethyl-2,3,4,5-tetrahydropyridin-2-yl)-4-fluorophenyl)-5-fluoropicolinamide], the efflux ratio at 60 min, 0.5 μM in the data set on P-gp (MDR1) is 1.09. Also, the Ki on BACE1 [1] is 30 nM. In addition, the inhibition at 10 µM at BACE1 [2] turned out to be 103%.

On to `[2H]C([2H])([2H])Oc1ccc(C(=O)Nc2cc(F)c(F)c([C@@]3(C)N=C(N)[C@](C)(F)C[C@@H]3F)c2)nc1` [Compound 18, N-(3-((2R,3S,5R)-6-amino-3,5-difluoro-2,5-dimethyl-2,3,4,5-tetrahydropyridin-2-yl)-4,5-difluorophenyl)-5-(methoxy-d3)picolinamide], for which the efflux ratio at 60 min, 0.5 μM with P-gp (MDR1) came out at 1.24. Besides, the Ki on BACE1 [1] is 6.8 nM. Besides, on BACE1 [2], the inhibition at 10 µM worked out at 101%.
